Measured values from patent US12290596B2, “Compositions and methods for the treatment of opioid overdose” (priority 2021, dated 2025).

Assay: Three-treatment crossover pharmacokinetics of IN nalmefene, three dosing regimens (Example 13)
Conditions: for half-life / AUC(0-t) / AUC(0-inf) / Cmax / Vd/F / concentration at 3 h / concentration at 4 h / concentration at 6 h / concentration at 8 h / concentration at 12 h / concentration at 18 h / concentration at 24 h / concentration at 48 h: human, plasma, other: intranasal (IN spray); for AUC(0-t) / AUC(0-inf) / Cmax / Vd/F: mean; for AUC(0-inf): AUCinf; for Vd/F: Vz/F; for concentration at 3 h / concentration at 4 h / concentration at 6 h / concentration at 8 h / concentration at 12 h / concentration at 18 h / concentration at 24 h / concentration at 48 h: T1 (3 mg IN, one spray in one nostril)
[1] = Treatment A (T1) 3 mg in one nostril
[2] = Treatment B (T2) 3 mg in each nostril (6 mg)
[3] = Treatment C (T3) 6 mg in one nostril
[4] = 3 mg, Treatment A (T1) 3 mg in one nostril
[5] = 6 mg, Treatment B (T2) 3 mg in each nostril (6 mg)
[6] = 6 mg, Treatment C (T3) 6 mg in one nostril

C=C1CC[C@@]2(O)[C@H]3Cc4ccc(O)c5c4[C@@]2(CCN3CC2CC2)[C@H]1O5 [Nalmefene, 17-cyclopropylmethyl-4,5α-epoxy-6-methylenemorphinan-3,14-diol]
Dose-normalized Cmax lower after Treatment C (T3) compared to Treatment A (T1) (ANOVA): approximately 19%
AUC0-2.5 min/D, mean [1]: 0.00276 ng·h/mL/mg
AUC0-5 min/D, mean [1]: 0.0206 ng·h/mL/mg
AUC0-7.5 min/D, mean [1]: 0.0728 ng·h/mL/mg
AUC0-10 min/D, mean [1]: 0.160 ng·h/mL/mg
AUC0-15 min/D, mean [1]: 0.393 ng·h/mL/mg
AUC0-20 min/D, mean [1]: 0.639 ng·h/mL/mg
AUC0-30 min/D, mean [1]: 1.06 ng·h/mL/mg
AUCextrap, mean [1]: 4.22%
CL/F, mean [1]: 66.9 L/h
Cmax/D, mean [1]: 3.59 ng/mL/mg
AUC0-2.5 min/D, mean [2]: 0.0072 ng·h/mL/mg
AUC0-5 min/D, mean [2]: 0.0369 ng·h/mL/mg
AUC0-7.5 min/D, mean [2]: 0.106 ng·h/mL/mg
AUC0-10 min/D, mean [2]: 0.202 ng·h/mL/mg
AUC0-15 min/D, mean [2]: 0.445 ng·h/mL/mg
AUC0-20 min/D, mean [2]: 0.691 ng·h/mL/mg
AUC0-30 min/D, mean [2]: 1.08 ng·h/mL/mg
AUCextrap, mean [2]: 3.61%
AUClast/D, mean [2]: 14.4 ng·h/mL/mg
CL/F, mean [2]: 69.2 L/h
Cmax/D, mean [2]: 3.70 ng/mL/mg
AUC0-2.5 min/D, mean [3]: 0.00455 ng·h/mL/mg
AUC0-5 min/D, mean [3]: 0.0244 ng·h/mL/mg
AUC0-7.5 min/D, mean [3]: 0.0803 ng·h/mL/mg
AUC0-10 min/D, mean [3]: 0.165 ng·h/mL/mg
AUC0-15 min/D, mean [3]: 0.374 ng·h/mL/mg
AUC0-20 min/D, mean [3]: 0.588 ng·h/mL/mg
AUC0-30 min/D, mean [3]: 0.931 ng·h/mL/mg
AUCextrap, mean [3]: 4.18%
AUClast/D, mean [3]: 13.7 ng·h/mL/mg
CL/F, mean [3]: 73.3 L/h
Cmax/D, mean [3]: 3.15 ng/mL/mg
half-life (3 mg): 11.4 h
AUC(0-t) (3 mg, AUC0-5 min, Treatment A (T1) 3 mg in one nostril): 0.0618 ng·h/mL
AUC(0-t) (3 mg, AUC0-10 min, Treatment A (T1) 3 mg in one nostril): 0.48 ng·h/mL
AUC(0-t) (3 mg, AUC0-15 min, Treatment A (T1) 3 mg in one nostril): 1.18 ng·h/mL
AUC(0-t) (3 mg, AUC0-20 min, Treatment A (T1) 3 mg in one nostril): 1.92 ng·h/mL
AUC(0-t) (3 mg, AUC0-30 min, Treatment A (T1) 3 mg in one nostril): 3.19 ng·h/mL
AUC(0-t) (3 mg, AUC0-[…], Treatment A (T1) 3 mg in one nostril): 0.219 ng·h/mL
AUC(0-inf) [4]: 46.8 ng·h/mL
AUC(0-t) (3 mg, AUClast, Treatment A (T1) 3 mg in one nostril): 44.9 ng·h/mL
Cmax [4]: 10.8 ng/mL
Vd/F [4]: 1090 L
concentration at 3 h (3 mg, Max): 6.01 ng/mL
concentration at 4 h (3 mg, Max): 4.86 ng/mL
concentration at 6 h (3 mg, Max): 3.01 ng/mL
concentration at 8 h (3 mg, Max): 2.19 ng/mL
concentration at 12 h (3 mg, Max): 1.51 ng/mL
concentration at 18 h (3 mg, Max): 0.851 ng/mL
concentration at 24 h (3 mg, Max): 0.785 ng/mL
concentration at 48 h (3 mg, Max): 0.184 ng/mL
concentration at 3 h (3 mg, Median): 3.51 ng/mL
concentration at 4 h (3 mg, Median): 2.78 ng/mL
concentration at 6 h (3 mg, Median): 2.07 ng/mL
concentration at 8 h (3 mg, Median): 1.34 ng/mL
concentration at 12 h (3 mg, Median): 0.985 ng/mL
concentration at 18 h (3 mg, Median): 0.581 ng/mL
concentration at 24 h (3 mg, Median): 0.37 ng/mL
concentration at 48 h (3 mg, Median): 0.088 ng/mL
concentration at 12 h (3 mg, Min): 0.727 ng/mL
concentration at 18 h (3 mg, Min): 0.37 ng/mL
concentration at 24 h (3 mg, Min): 0.261 ng/mL
concentration at 48 h (3 mg, Min): 0 ng/mL
half-life (6 mg): 11.3 h
AUC(0-t) (6 mg, AUC0-5 min, Treatment B (T2) 3 mg in each nostril (6 mg)): 0.222 ng·h/mL
AUC(0-t) (6 mg, AUC0-5 min, Treatment C (T3) 6 mg in one nostril): 0.146 ng·h/mL
AUC(0-t) (6 mg, AUC0-10 min, Treatment B (T2) 3 mg in each nostril (6 mg)): 1.21 ng·h/mL
AUC(0-t) (6 mg, AUC0-10 min, Treatment C (T3) 6 mg in one nostril): 0.988 ng·h/mL
AUC(0-t) (6 mg, AUC0-15 min, Treatment B (T2) 3 mg in each nostril (6 mg)): 2.67 ng·h/mL
AUC(0-t) (6 mg, AUC0-15 min, Treatment C (T3) 6 mg in one nostril): 2.24 ng·h/mL
AUC(0-t) (6 mg, AUC0-20 min, Treatment B (T2) 3 mg in each nostril (6 mg)): 4.14 ng·h/mL
AUC(0-t) (6 mg, AUC0-20 min, Treatment C (T3) 6 mg in one nostril): 3.53 ng·h/mL
AUC(0-t) (6 mg, AUC0-30 min, Treatment B (T2) 3 mg in each nostril (6 mg)): 6.46 ng·h/mL
AUC(0-t) (6 mg, AUC0-30 min, Treatment C (T3) 6 mg in one nostril): 5.58 ng·h/mL
AUC(0-inf) [5]: 89.5 ng·h/mL
AUC(0-inf) [6]: 85.7 ng·h/mL
AUC(0-t) (6 mg, AUClast, Treatment B (T2) 3 mg in each nostril (6 mg)): 86.2 ng·h/mL
AUC(0-t) (6 mg, AUClast, Treatment C (T3) 6 mg in one nostril): 82.1 ng·h/mL
Cmax [5]: 22.2 ng/mL
Vd/F [5]: 1120 L
Vd/F [6]: 1190 L
